Experimental data reported in ChEMBL document CHEMBL2203134, “Discovery of XL888: a novel tropane-derived small molecule inhibitor of HSP90” (Bioorg Med Chem Lett, 2012).
In brackets after ≈: the same amount, converted by molar mass. Activity calls are given as the source filed them. The rule behind the calls is not given here.

Columns and labels:
[1] = biological target: T1, Heat shock protein HSP90 (Homo sapiens, UniProt P07900+P08238); assay: Inhibition of Hsp90 in human NCI-N87 cells assessed as Her2 degradation after 24 hrs by Western blot analysis; type: cell-based
[2] = test system: Rattus norvegicus; assay: Dose normalized AUC in rat at 2.5 mg/kg, iv; type: ADME, organism-based; parameters: dose 2.5 mg/kg, route intravenous; conditions: in vivo
[3] = Apparent permeability across MDCK cells; type: ADME, cell-based, Canis lupus familiaris; conditions: dog
[4] = Oral bioavailability in rat at 2.5 mg/kg; type: ADME, organism-based; conditions: in vivo
[5] = biological target: T1, Heat shock protein HSP90; assay: Displacement of biotinylated geldanamycin from human His-tagged Hsp90 by TR-FRET assay; type: protein assay
[6] = Half life in rat at 2.5 mg/kg, iv; type: ADME, organism-based; parameters: dose 2.5 mg/kg, route intravenous; conditions: in vivo
[7] = Clearance in rat at 2.5 mg/kg, iv; type: ADME, organism-based; parameters: dose 2.5 mg/kg, route intravenous; conditions: in vivo
[8] = test system: Mus musculus; assay: Inhibition of Hsp90 in human COLO205 cells xenografted in mouse assessed as Her2 degradation at 100 mg/kg administered QD for 2 days measured 8 hrs post-last dose; type: functional; conditions: COLO 205
[9] = test system: Mus musculus; assay: Inhibition of Hsp90 in human COLO205 cells xenografted in mouse assessed as Raf1 degradation at 100 mg/kg administered QD for 2 days measured 8 hrs post-last dose; type: functional; conditions: COLO 205
[10] = biological target: T1, Heat shock protein HSP90; assay: Inhibition of Hsp90 in human A549 cells assessed as Raf1 degradation after 24 hrs by Western blot analysis; type: cell-based
[11] = Clearance in iv dosed rat; type: ADME, organism-based; conditions: in vivo
[12] = Oral bioavailability in rat at 5 mg/kg; type: ADME, organism-based; conditions: in vivo
[13] = Half life in rat at 5 mg/kg, iv; type: ADME, organism-based; parameters: dose 5 mg/kg, route intravenous; conditions: in vivo
[14] = Clearance in rat at 5 mg/kg, iv; type: ADME, organism-based; parameters: dose 5 mg/kg, route intravenous; conditions: in vivo
[15] = test system: Rattus norvegicus; assay: Dose normalized AUC in rat at 5 mg/kg, iv; type: ADME, organism-based; parameters: dose 5 mg/kg, route intravenous; conditions: in vivo
[16] = test system: Rattus norvegicus; assay: Dose normalized AUC in iv dosed rat; type: ADME, organism-based; conditions: in vivo
[17] = Drug metabolism in human liver microsomes at 15 uM after 30 mins; type: ADME, Microsome; conditions: read-out: Drug metabolism
[18] = Half life in iv dosed rat; type: ADME, organism-based; conditions: in vivo
[19] = Kinetic solubility of the compound; type: physicochemical; conditions: read-out: Kinetic_solubility
[20] = Oral bioavailability in rat; type: ADME, organism-based; conditions: in vivo
[21] = Drug metabolism in mouse liver microsomes at 15 uM after 30 mins; type: ADME, Microsome; conditions: read-out: Drug metabolism

Compound | IC50 [1] | AUC/dose [2] | Papp [3] | bioavailability [4] | IC50 [5] | half-life [6] | clearance [7] | IC50 [10] | other results
CCC(CC)Nc1cc(C(=O)NC2CC3CCC(C2)N3c2ccc(C(=O)C3CC3)cn2)c(C)cc1C(N)=O (stereo not given) | 82 nM | 1.04 µM·kg·h/mg | 14.3 ×10⁻⁶ cm/s | 29% | 25 nM | 1.8 h | 30.8 mL/min/kg |  | 
CO[C@H]1/C=C\C=C(/C)C(=O)NC2=CC(=O)C(NCCN(C)C)=C(C[C@@H](C)C[C@H](OC)[C@H](O)[C@@H](C)/C=C(\C)[C@@H]1OC(N)=O)C2=O [ALVESPIMYCIN] |  |  |  |  |  |  |  |  | inhibition [8]: inactive; inhibition in vivo at 100 mg/kg [9]: 84%
Cc1cc(CO)ccc1C(=O)NC1CC2CCC(C1)N2c1ccc(C(=O)NCc2ccccc2)cn1 (stereo not given) |  |  | 3 ×10⁻⁶ cm/s |  | 128 nM |  |  | 1900 nM | 
COc1cccc(C(=O)NC2CC3CCC(C2)N3c2ccc(C(=O)N[C@H](C)c3ccccc3)cn2)c1C (stereo not given in full) |  |  |  |  | 7450 nM |  |  | > 10000 nM | 
C[C@H](NC(=O)c1ccc(N2C3CCC2CC(NC(=O)c2ccc(C(N)=O)c(NCC4CC4)c2)C3)nc1)c1ccc(N2CCN(C)CC2)cc1 (stereo not given in full) |  |  | 0.15 ×10⁻⁶ cm/s |  | 80 nM |  |  | 42 nM | clearance [11]: 157 mL/min/kg
Cc1cc(C(N)=O)c(NC2CCCC2)cc1C(=O)NC1CC2CCC(C1)N2c1ccc(C(=O)C2CC2)cn1 (stereo not given) | 316 nM | 2.26 µM·kg·h/mg | 14.6 ×10⁻⁶ cm/s | 28% | 27 nM | 1.1 h | 14.5 mL/min/kg |  | 
CCC(CC)Nc1cc(C(=O)NC2CC3CCC(C2)N3c2ccc(C(C)=O)cn2)c(C)cc1C(N)=O (stereo not given) | 44 nM |  |  |  | 28 nM |  |  |  | bioavailability [12]: 4%; half-life [13]: 1.7 h; clearance [14]: 51.8 mL/min/kg; AUC/dose [15]: 0.6 µM·kg·h/mg
COc1cccc(C(=O)NC2CC3CCC(C2)N3c2ccc(C(=O)NCc3ccc(N4CCN(C)CC4)cc3)cn2)c1C (stereo not given) |  |  | 7.4 ×10⁻⁶ cm/s |  | 108 nM |  |  | 579 nM | AUC/dose [16]: 0.23 µM·kg·h/mg; metabolised at 0.5 h, 15 µM [17]: 28%; clearance [11]: 112 mL/min/kg; half-life [18]: 6.5 h; solubility kinetic [19]: 285 µM (≈ 166 µg/mL); bioavailability [20]: 28%
Cc1cc(C(N)=O)ccc1C(=O)NC1CC2CCC(C1)N2c1ccc(C(=O)NCc2ccccc2)cn1 (stereo not given) |  |  | 0.21 ×10⁻⁶ cm/s |  | 598 nM |  |  | 2700 nM | 
COc1cccc(C(=O)NC2CC3CCC(C2)N3c2ccc(C(=O)N[C@@H](C)c3ccc(N4CCN(C)CC4)cc3)cn2)c1C (stereo not given in full) |  |  | 6.3 ×10⁻⁶ cm/s |  | 200 nM |  |  | 374 nM | AUC/dose [16]: 0.71 µM·kg·h/mg; metabolised at 0.5 h, 15 µM [17]: 37%; clearance [11]: 34.3 mL/min/kg; half-life [18]: 6.4 h; solubility kinetic [19]: 447 µM (≈ 267 µg/mL); bioavailability [20]: 30%
CCCNc1cc(C(=O)NC2CC3CCC(C2)N3c2ccc(C(=O)C3CC3)cn2)c(C)cc1C(N)=O (stereo not given) | 1122 nM |  | 23.4 ×10⁻⁶ cm/s |  | 24 nM |  |  |  | 
CC(C)C(=O)c1ccc(N2C3CCC2CC(NC(=O)c2ccc(C(N)=O)c(NCC4CC4)c2)C3)nc1 (stereo not given) | 1610 nM |  |  |  | 1140 nM |  |  |  | 
COc1cccc(C(=O)NC2CC3CCC(C2)N3c2ccc(C(=O)N[C@@H](C)c3ccccc3)cn2)c1C (stereo not given in full) |  |  | 38 ×10⁻⁶ cm/s |  | 126 nM |  |  | 421 nM | metabolised at 0.5 h, 15 µM [17]: 68%; solubility kinetic [19]: 2.2 µM (≈ 1.1 µg/mL)
CCC(CC)Nc1cc(C(=O)NC2CC3CCC(C2)N3c2ccc(C(=O)C3CC3)cn2)ccc1C(N)=O (stereo not given) | 117 nM |  | 14.1 ×10⁻⁶ cm/s |  | 86 nM |  |  |  | bioavailability [12]: 11%; half-life [13]: 0.5 h; clearance [14]: 39.7 mL/min/kg; AUC/dose [15]: 0.78 µM·kg·h/mg
Cc1cc(C(N)=O)c(NC(C)C)cc1C(=O)NC1CC2CCC(C1)N2c1ccc(C(=O)C2CC2)cn1 (stereo not given) | 130 nM | 0.57 µM·kg·h/mg | 20.6 ×10⁻⁶ cm/s | 33% | 21 nM | 1.5 h | 63.2 mL/min/kg |  | 
O=C(NCc1ccccc1)c1ccc(N2C3CCC2CC(NC(=O)c2ccc(CO)cc2)C3)nc1 (stereo not given) |  |  | 2.5 ×10⁻⁶ cm/s |  | 322 nM |  |  | 5400 nM | 
Cc1cc(C(=O)NC2CC3CCC(C2)N3c2ccc(C(=O)NCc3ccccc3)cn2)c(C)cc1C(N)=O (stereo not given) |  |  | 3 ×10⁻⁶ cm/s |  |  |  |  | > 10000 nM | 
C[C@H](NC(=O)c1ccc(N2C3CCC2CC(NC(=O)c2ccc(C(N)=O)c(Nc4ccccc4)c2)C3)nc1)c1ccc(N2CCN(C)CC2)cc1 (stereo not given in full) |  |  | 0.32 ×10⁻⁶ cm/s |  | 260 nM |  |  | 105 nM | 
NC(=O)c1ccc(C(=O)NC2CC3CCC(C2)N3c2ccc(C(=O)NCc3ccccc3)cn2)cc1 (stereo not given) |  |  | 0.06 ×10⁻⁶ cm/s |  | 445 nM |  |  | 5200 nM | 
CCC(CC)Nc1cc(C(=O)NC2CC3CCC(C2)N3c2ccc(C(C)=O)cn2)ccc1C(N)=O (stereo not given) | 52 nM |  | 67.6 ×10⁻⁶ cm/s |  | 38 nM |  |  |  | bioavailability [12]: 5%; half-life [13]: 0.5 h; clearance [14]: 28.5 mL/min/kg; AUC/dose [15]: 1.22 µM·kg·h/mg
NC(=O)c1ccc(C(=O)NC2CC3CCC(C2)N3c2ccc(C(=O)C3CC3)cn2)cc1NCC1CC1 (stereo not given) | 494 nM | 3.7 µM·kg·h/mg | 50.3 ×10⁻⁶ cm/s | 41% | 120 nM | 22 h | 8.43 mL/min/kg |  | 
COc1cccc(C(=O)NC2CC3CCC(C2)N3c2ccc(C(=O)NCc3ccccc3)cn2)c1C (stereo not given) |  | 0.9 µM·kg·h/mg | 50.5 ×10⁻⁶ cm/s | 4% |  | 0.72 h | 38.1 mL/min/kg |  | metabolised at 0.5 h, 15 µM [21]: 79%; metabolised at 0.5 h, 15 µM [17]: 64%; solubility kinetic [19]: 4.1 µM (≈ 1.99 µg/mL)
C[C@H](NC(=O)c1ccc(N2C3CCC2CC(NC(=O)c2ccc(C(N)=O)c(NC4CCC4)c2)C3)nc1)c1ccc(N2CCN(C)CC2)cc1 (stereo not given in full) |  |  | 0.46 ×10⁻⁶ cm/s |  | 160 nM |  |  | 59 nM | 
CC[C@H](C)Nc1cc(C(=O)NC2CC3CCC(C2)N3c2ccc(C(=O)C3CC3)cn2)c(C)cc1C(N)=O (stereo not given in full) | 252 nM | 0.87 µM·kg·h/mg | 24 ×10⁻⁶ cm/s | 20% |  | 1 h | 38.5 mL/min/kg |  | 
CCNC(=O)c1ccc(N2C3CCC2CC(NC(=O)c2ccc(C(N)=O)c(NCC4CC4)c2)C3)nc1 (stereo not given) | 2170 nM |  | 32.4 ×10⁻⁶ cm/s |  | 104 nM |  |  |  | 
CC(=O)c1ccc(N2C3CCC2CC(NC(=O)c2ccc(C(N)=O)c(NCC4CC4)c2)C3)nc1 (stereo not given) | 182 nM | 0.5 µM·kg·h/mg | 44.2 ×10⁻⁶ cm/s | 42% | 40 nM | 7 h | 71.5 mL/min/kg |  | 
Cc1cc(C(N)=O)c(NCC2CC2)cc1C(=O)NC1CC2CCC(C1)N2c1ccc(C(=O)C2CC2)cn1 (stereo not given) | 245 nM | 1.7 µM·kg·h/mg | 22.3 ×10⁻⁶ cm/s | 51% | 25 nM | 0.9 h | 19.7 mL/min/kg |  | 
Cc1cc(C(=O)NC2CC3CCC(C2)N3c2ccc(C(=O)N[C@@H](C)c3ccc(N4CCN(C)CC4)cc3)cn2)c(C)cc1C(N)=O (stereo not given in full) |  |  | < 0.01 ×10⁻⁶ cm/s |  | 53 nM |  |  | 2900 nM | 
NC(=O)c1ccc(C(=O)NC2CC3CCC(C2)N3c2ccc(C(=O)NC3CCCC3)cn2)cc1NCC1CC1 (stereo not given) | 351 nM | 0.49 µM·kg·h/mg | 4.8 ×10⁻⁶ cm/s | 0% | 89 nM | 0.6 h | 63.5 mL/min/kg |  | 
